Data set [1] relates to subjects with a taste and/or smell disorder. As to the kind of experiment: Taste and/or smell function after intranasal dosage units in a plume from a multi-dose nasal spray device (Examples 10-15). The format is in vivo, human. The note with it: once per day in each naris. From the text:
The improvements in taste and/or smell function are evidenced by a decrease in the detection threshold for at least one odorant and/or tastant, a decrease in the recognition threshold for at least one odorant and/or tastant, and/or an increase in a magnitude estimation for at least one odorant and/or tastant.

The subject of the next data set is PDE. The conditions noted are these: non-specific PDE inhibitor; cited from earlier work.
A further data set deals with asthmatic patients. As to the kind of experiment: sGaw after inhaled dry powder in asthmatic patients (Examples 5, 6). The procedure:
To test this theory, asthmatic patients are enrolled in a dose escalating single blind study. On arrival to the clinic, subjects are allowed to rest for 20 minutes before baseline measurements of FEV1 (six recordings) and sGaw (five recordings) are made. Subjects receive a dry powder dispenser loaded with a dose of 2 mg theophylline or a dry powder carrier. […] After each inhalation, measurements of sGaw are made at 1, 3, 5, 10, 15, 20, 25, and 30 minutes.
On completion of the last recording, subjects inhale a 200 μg dose of salbutamol from a metered inhaler and a further measurement of sGaw is made after 15 minutes. Subjects are also monitored for coughing and are questioned about the taste of the drug.
Asthmatic patients are enrolled in a dose escalating single blind study. On arrival to the clinic, subjects are allowed to rest for 20 minutes before baseline measurements of FEV1 (six recordings) and sGaw (five recordings) are made. Subjects receive a dry powder dispenser loaded with a dose of 1 mg IBMX formulated as a dry powder or a dry powder carrier. […] After each inhalation, measurements of sGaw are made at 1, 3, 5, 10, 15, 20, 25, and 30 minutes.
On completion of the last recording, subjects inhale a 200 μg dose of salbutamol from a metered inhaler and a further measurement of sGaw made after 15 minutes. Subjects are also be monitored for coughing and are questioned about the taste of the drug.

The test system of a further data set is patients with hyposmia. Briefly: Subjective overall change in smell function; open trial of oral theophylline. In kind it is in vivo, human. The note with it: cilostazol added to 600 mg or 800 mg of theophylline in patients who improved <5%. The procedure:
Independently, patients were also required to grade their ability to smell daily on a scale from 0-100, with 0 reflecting no overall smell function over a 24 hour period, 100 reflecting normal overall smell function over this period and numbers from 0-100 reflecting their estimation of their overall ability to smell odors over this period.
After determination of hyposmia, patients were treated in an open label, fixed design, controlled open trial. Patients were given an oral extended release theophylline in divided daily doses taken in the middle of breakfast and lunch. All patients were initially given 200 mg of theophylline; changes in this dose were made based upon subjective responses to therapy. If at a subsequent return visit, patients reported ≥5% subjective improvement in overall smell function, they continued on this same dose of theophylline and were reevaluated after four to six months of continued treatment. Results from any subsequent return from these improved patients were not included in any subsequent data report. All subsequent comparisons between treated and untreated patients were made only between those patients continuing in the study compared to their own measurements obtained in the untreated state. If patients reported <5% subjective improvement, their theophylline dose was increased by 200 mg daily and they were scheduled for retesting at the study site after two to four months at this new dosage. For patients that reported <5% improvement, this sequence continued until patients reached 800 mg of theophylline, at which time the study was considered completed.
Patients returned for reevaluation after two to four months of treatment. Measurements of blood serum theophylline were measured by a fluorescence polarization assay (Abbott, Chicago, Ill.). At this time, subjective changes in smell function were measured independently (compared to patient's memory of previous normal smell function monitored by use of the patients' daily measurements) using the scale from −100−0-+100 previously described. After independently recording their subjective responses, smell function was measured for all four odors with DT, RT, ME and H determined without recourse to prior measurements.
Subjective overall changes in smell acuity were reported by telephone and by FAX or email at two—four month intervals after treatment was initiated using the standardized form in which they measured daily changes in smell acuity using the −100−0-+100 scale as noted above. Using the same criteria noted above, if at their initial two—four month call-in they reported improvement in smell acuity of ≥5%, they continued at 200 mg and returned to the study site at four—six months on this treatment dose. If they reported improvement in smell acuity of <5% their dose of theophylline was increased to 400 mg for an additional two—four months and they then called the study site at the end of this period.

`O=C(Nc1c(Cl)cncc1Cl)c1ccc(OC(F)F)c(OCC2CC2)c1` [roflumilast]: the “taste and/or smell function” value in data set [1] is reported as “improvement in taste and/or smell function”.
Still for that read-out and setting: as for `COc1ccc(Cc2nccc3cc(OC)c(OC)cc23)cc1OC` [papaverine], the entry is “improvement in taste and/or smell function”.
Turning to `CC(C)Cn1c(=O)n(C)c(=O)c2[nH]cnc21` [IBMX, 3-isobutyl-1-methylxanthine], in the data set on PDE, the concentration for half-maximal inhibition (IC50) – broadly, the concentration that gives 50% inhibition – was 2 to 50 µM. Further, the “sGaw above the baseline measurement” value in the data set with asthmatic patients (after 30 minutes, inhaled dry powder 1 mg IBMX) is listed as 20%. Moreover, the taste and coughing result in the data set with asthmatic patients (human, in vivo) is reported as “without the unpleasant taste or the induction of coughing”. Further, in the data set with asthmatic patients (inhaled dry powder 1 mg IBMX), the “increase in sGaw relative to 200 μg inhaled salbutamol” value is “comparable”; the “time until sGaw baseline is reached” value was “one and a half”.
In the case of `O=C1CCc2cc(OCCCCc3nnnn3C3CCCCC3)ccc2N1` [cilostazol], the “taste and/or smell function” value in data set [1] is reported as “improvement in taste and/or smell function”. Also, in the data set with patients with hyposmia, the “additional patients with improved smell function” value is on record as 15%.
